Test results: patent US5954858A, “Bioreactor process for the continuous removal of organic compounds from a vapor phase process stream” (North Carolina State University, priority 1996, dated 1999)
Entries after “also recorded” stand apart in the source; their conditions may differ.

What was measured:
[1] = tested on: Strain px-2; experiment: Oxygen uptake rate, strain px-2; type: cell-based, bacterial strain px-2
Procedure: (§1) Experiments were conducted to examine the range of compounds degraded by enzymes present in the metabolic pathways of the strains established on meta- and para-xylene, as described in Example 7. […] The compounds listed Table 7 from benzoate through protocatechuate are enzymatic pathway intermediates in the oxidation of aromatic compounds.

[2] = tested on: Strain mx-2; experiment: Oxygen uptake rate, strain mx-2; type: cell-based, bacterial strain mx-2
Procedure: as §1

[3] = tested on: isolated soil consortia; experiment: Degradability / utilization as growth substrate by isolated soil consortia; type: cell-based; conditions: utilization as carbon source for growth and energy
Source text: (§2) Using a mixed consortium of organisms isolated in liquid culture from soil samples removed from a site saturated with gasoline for a number of years, the model compounds from each of the represented species in furniture exhaust gases were examined for degradability. Degradability actually refers to the ability of the microorganisms to utilize a compound as a carbon source for growth and energy. Different carbon sources are preferred by different organisms, so it was important to determine which model compounds were acceptable for the consortium which was isolated. Following completion of these initial studies, organism subcultures were generated for specific compounds.

[4] = tested on: mx-2; experiment: Growth rate of mx-2 strain in shake flask; type: cell-based, mx-2 bacterial strain; conditions: for effect on the growth rate: mx-2 mixed carbon source study
Source text: (§3) Using a mixed consortium of organisms isolated in liquid culture from soil samples removed from a site saturated with gasoline for a number of years, the model compounds from each of the represented species in furniture exhaust gases were examined for degradability. Degradability actually refers to the ability of the microorganisms to utilize a compound as a carbon source for growth and energy. […] Following completion of these initial studies, organism subcultures were generated for specific compounds.
(§4) Maximum growth rates for the isolated consortia were determined in shake flask studies containing minimal media and supplemented with the appropriate compound. Concentrations of volatile organic compounds added to the flasks were 400 ppm (mole/mole) for MEK and MIBK, 150 ppm for m-xylene and p-xylene, and 2000 ppm for IBA and methanol.
(§5) The effects of carbon source composition were examined for the mx-2 bacterial strain. mx-2 is one of the strains of microorganism isolated from soil samples exposed to gasoline as described in Example 7.
(§6) In addition to examining the effects of ethanol and methanol, the impact of octanol on microorganism growth was determined. This investigation was necessary since some octanol (stripping fluid) will be delivered to the membrane bioreactor with the VHAPs/VOCs.

[5] = tested on: mx-2; experiment: m-Xylene degradation rate of mx-2 strain; type: cell-based, mx-2 bacterial strain
Source text: as §3, §4, §5, §6

[6] = tested on: initial gasoline consortium; experiment: Enrichment of the initial gasoline consortium in individual flasks; type: cell-based, organisms isolated from gasoline-saturated soil samples
Source text: as §2

[7] = Partition coefficient of solute between stripping fluid (octanol) and air; type: physicochemical
Procedure: Before beginning work with the LIQUI-CEL® membrane modules presented in Example 2, partition coefficient experiments were performed to investigate the equilibrium distribution of m-xylene, MEK, and MIBK between phases for stripping fluid/air. Octanol was chosen as the stripping fluid because data from previously conducted studies was readily available for comparison.
(§7) Partition coefficients are defined as a measure of the affinity a solute has for one phase over another at equilibrium. Therefore, they are an integral part of equations related to membrane contactor design and operation. Partition coefficients are expressed as a ratio of concentrations; the general form being (concentration in solvent)/(concentration in air).
For these studies, two forms of the partition coefficient were used. The first was the general form, which indicated the level of driving force for mass transfer (a value greater than 1 indicates sufficient driving force). The second form was defined as 1/(general form), or 1/Pgen, which was used in system operating equations.

[8] = Partition coefficient of solute between octanol and water; type: physicochemical; conditions: 31 °C
[9] = Partition coefficient of m-xylene between natural oils and air; type: physicochemical; conditions: 31 °C
Source text: as §7
An additional set of experiments was run to evaluate stripping fluids other than octanol. This was due mainly to the relatively high cost of commercially available octanol. Partition coefficients were determined for m-xylene in several natural oils at 31° C. […] The purchase cost of these oils is roughly one-quarter that of octanol.

[10] = tested on: isolated consortia; experiment: Growth rate of cultures on o-xylene; type: cell-based, bacterial cultures isolated from soil samples
Source text: as §2
Pure bacterial cultures (single identifiable organisms) were established on meta- and para-xylene; the other cultures consisted of approximately three different bacterial strains each. Maximum growth rates for the isolated consortia were determined in shake flask studies containing minimal media and supplemented with the appropriate compound. Concentrations of volatile organic compounds added to the flasks were 400 ppm (mole/mole) for MEK and MIBK, 150 ppm for m-xylene and p-xylene, and 2000 ppm for IBA and methanol.

[11] = mx-2 on m-xylene, + 500 ppm octanol

Cc1cccc(O)c1O [3-Methylcatechol]
Oxygen Uptake [1]: 1.50 μmol/min-mg total protein | Oxygen Uptake [2]: 1.17 μmol/min-mg total protein

Cc1ccc(O)c(O)c1 [4-Methylcatechol]
Oxygen Uptake [1]: 4.35 μmol/min-mg total protein | Oxygen Uptake [2]: 0.92 μmol/min-mg total protein

CC(C)=O [Acetone]
Degradability [3]: Yes

c1ccccc1 [Benzene]
Oxygen Uptake [1]: 0.13 μmol/min-mg total protein | Oxygen Uptake [2]: 0.27 μmol/min-mg total protein

O=C(O)c1ccccc1 [Benzoate]
Oxygen Uptake [1]: 2.34 μmol/min-mg total protein | Oxygen Uptake [2]: 0.66 μmol/min-mg total protein

Oc1ccccc1O [Catechol]
Oxygen Uptake [1]: 5.19 μmol/min-mg total protein | Oxygen Uptake [2]: 1.23 μmol/min-mg total protein

CCO [Ethanol]
Degradability [3]: Yes | effect on the growth rate [4]: negligible | Specific Growth Rate ([4]; mx-2 on m-xylene, + 0.2% EtOH): 0.40 h⁻¹ | lowering of the maximum growth rate ([4]; mx-2 on m-xylene, in presence of ethanol): 10% | reduction of the degradation rate of m-xylene ([5]; mx-2, in presence of ethanol): about 30% | Degradation Rate ([5]; mx-2 on m-xylene, + 0.2% EtOH): 2.34 * 10^-10 mg/(hr - cell)

C=O [Formaldehyde]
Degradability [3]: Yes

CC(C)CO [Isobutyl alcohol]
Degradability [3]: Yes

CCC(C)=O [MEK, methyl ethyl ketone]
Degradability [3]: Yes | cultures capable of degrading compound after enrichment [6]: cultures capable of degrading each compound were developed

CC(=O)CC(C)C [MIBK, methyl isobutyl ketone]
Partition Coef. [oct]/[air] ([7]; 6 °C): .infin. | Partition Coef. [oct]/[air] ([7]; 22 °C): 22,045 | Partition Coef. [oct]/[air] ([7]; 31 °C): 8,721 | Partition Coef. [oct]/[water] [8]: 2.1 | Degradability [3]: Yes | cultures capable of degrading compound after enrichment [6]: cultures capable of degrading each compound were developed

CO [Methanol, methanol]
Degradability [3]: Yes | effect on the growth rate [4]: negligible; also recorded: no effect | Specific Growth Rate ([4]; mx-2 on m-xylene, + 0.2% MeOH): 0.45 h⁻¹ | Degradation Rate ([5]; mx-2 on m-xylene, + 0.2% MeOH): 3.57 * 10^-10 mg/(hr - cell) | cultures capable of degrading compound after enrichment [6]: cultures capable of degrading each compound were developed

C=Cc1ccccc1 [Styrene]
Degradability [3]: Yes | Oxygen Uptake [1]: 0.47 μmol/min-mg total protein | Oxygen Uptake [2]: 0.55 μmol/min-mg total protein

Cc1ccccc1 [Toluene]
Degradability [3]: Yes | Oxygen Uptake [1]: 0.17 μmol/min-mg total protein | Oxygen Uptake [2]: 0.18 μmol/min-mg total protein

CC(=O)OCC(C)C [isobutyl acetate]
cultures capable of degrading compound after enrichment [6]: cultures capable of degrading each compound were developed

Cc1cccc(C)c1 [m-xylene]
Partition Coef. [oct]/[air] ([7]; 6 °C): 9,865 | Partition Coef. [oct]/[air] ([7]; 22 °C): 7,978 | Partition Coef. [oct]/[air] ([7]; 31 °C): 7,703 | form 2 partition coefficient, Pair/oct (1/general form) ([7]; air/stripping fluid separation unit): 0.00014 | Partition Coef. [solvent]/[air] ([9]; corn oil): 8,283 | Partition Coef. [solvent]/[air] ([9]; mineral oil): 7,284 | Partition coefficients in natural oils versus octanol ([9]; natural oils evaluated): comparable to those for octanol | Partition Coef. [solvent]/[air] ([9]; sunflower seed oil): 8,244 | Partition Coef. [oct]/[water] [8]: 1,021 | Degradability [3]: Yes | Specific Growth Rate ([4]; mx-2 (strain grown on m-xylene, 150 ppm)): 0.46 hr^1 | Degradation Rate ([5]; mx-2 (grown on m-xylene, 150 ppm)): 3.60 * 10^-10 mg/(hr - cell) | Oxygen Uptake [1]: 0.31 μmol/min-mg total protein | Oxygen Uptake [2]: 0.82 μmol/min-mg total protein | cultures capable of degrading compound after enrichment [6]: cultures capable of degrading each compound were developed

CCCCO [n-Butyl alcohol]
Degradability [3]: Yes

Cc1ccccc1C [o-Xylene]
Degradability [3]: Yes | growth rate compared with other compounds [10]: relatively slow compared with that on other compounds | Oxygen Uptake [2]: 0.31 μmol/min-mg total protein

CCCCCCCCO [octanol]
Specific Growth Rate ([4]; 500 ppm octanol (without "+")): 0.20 h⁻¹ | effect on the growth rate [4]: no effect | Specific Growth Rate [4, 11]: 0.46 h⁻¹ | Degradation Rate [5, 11]: 3.60 * 10^-10 mg/(hr - cell) | effect on the degradation rate ([5]; test microorganism strain grown on m-xylene): no effect

Cc1ccc(C)cc1 [p-Xylene]
Degradability [3]: Yes | Oxygen Uptake [1]: 0.34 μmol/min-mg total protein | Oxygen Uptake [2]: 1.21 μmol/min-mg total protein | cultures capable of degrading compound after enrichment [6]: cultures capable of degrading each compound were developed
